We go through six sequences from patent publication US8105797B2, “Diagnostic test” (priority 2004, dated 2012).

The experiment concerns PBMCs from healthy unexposed BCG-vaccinated donors. In kind it is cell-based, human.

In the case of “YFIRMWNQAALAMEV (listed as Mycobacterium tuberculosis) [139-153, from pool 2 of Rv3873]”, the “response of BCG-vaccinated unexposed donor to individual peptide” value (“response” for short) is reported as “responded”.

For the sequence “AAKLAGLVFPQPPAP (listed as Mycobacterium tuberculosis) [16-30, from Rv3878]”, the “response” value was “responded”. Under LTATNFFGINTIPIA [119-133] stands “responded”; under “LDPGASQSTTNPIFG (listed as Mycobacterium tuberculosis) [peptide 174-188, from Rv3873]”, “responded”. Regarding “DTFYDRAQEYSQVLQ (listed as Mycobacterium tuberculosis) [26-40, from Rv3879c, pool 1]”, the “response” value was “responded”.

Turning to “ESLVSDGLPGVKAAL (listed as Mycobacterium tuberculosis) [61-75, from Rv3878]”, the “response” value is recorded as “responded”.
